The CheMixHub viscosity set

Assay: xn = mol fraction of the nth substance listed

Brc1ccccc1 + CCOC(C)=O
viscosity [mPa·s], 101 kPa
Details	298.15 K	308.15 K
x2 = 0.0463	0.997	0.926
x2 = 0.1501	0.906	0.844
x2 = 0.2468	0.829	0.775
x2 = 0.3482	0.756	0.707
x2 = 0.4571	0.686	0.641
x2 = 0.5073	0.656	0.612
x2 = 0.5465	0.633	0.591
x2 = 0.6468	0.58	0.539
x2 = 0.75	0.53	0.49
x2 = 0.848	0.487	0.447
x2 = 0.9469	0.448	0.407

O=C1CCCO1 + CCOC(C)=O
298.15 K, 101.33 kPa
Details	viscosity [mPa·s]
x2 = 0.0501	1.575
x2 = 0.1023	1.453
x2 = 0.1528	1.345
x2 = 0.2005	1.249
x2 = 0.2542	1.152
x2 = 0.3039	1.071
x2 = 0.4046	0.926
x2 = 0.4546	0.864
x2 = 0.5006	0.81
x2 = 0.5528	0.755
x2 = 0.6019	0.707
x2 = 0.6994	0.622
x2 = 0.75	0.583
x2 = 0.7981	0.547
x2 = 0.849	0.513
x2 = 0.902	0.481
x2 = 0.9504	0.45

N#C[S-].[NH4+] + CCOS(=O)(=O)[O-].CC[n+]1ccn(C)c1
viscosity [mPa·s], 101 kPa
Details	x1 = 0.0235	x1 = 0.1553	x1 = 0.3025	x1 = 0.4042	x1 = 0.5205	x1 = 0.565	x1 = 0.5997
298.15 K	103.1	150	209.3	231.1	223.9	215.9	208.9
303.15 K	81.26	118	163.3	178.7	173.4	172.5	168.2
308.15 K	65.16	94.31	129.6	140.9	135.3	133.9	133.7
313.15 K	53.09	76.57	104.6	112.9	107.5	106	105.4
318.15 K	43.86	63.03	85.57	91.83	86.87	85.31	84.57
323.15 K	36.68	52.56	70.9	75.56	71.22	69.75	68.92
